Values quoted from earlier work as cited in patent publication US20170325481A1, “METHOD OF FORMING ENCAPSULATED COMPOSITIONS WITH ENHANCED SOLUBILITY AND STABILITY” (KEMIN INDUSTRIES, INC., priority 2011, published 2017).

Conditions: multiple nanosize emulsions, 4 weeks of storage at 50° C.

SMILES: CC1=C(/C=C/C(C)=C/C=C/C(C)=C/C=C/C=C(C)/C=C/C=C(C)/C=C/C2=C(C)CCCC2(C)C)C(C)(C)CCC1 [β-carotene]
- β-carotene left after storage: 32.3%
